Broadly, the IC80 is the concentration at which the effect reaches the 80% level. The low end stands for an effect from little substance, the high end for a need for much substance. The EC50 is the concentration that produces a half-maximal response. Usually IC50 stands for the concentration that gives 50% inhibition.

*1 amine or outer side, *2 acyl side, *3 side chain or, on linkers, in order; H or OH if unused. Where a SMILES comes first, the peptide text is derived from it. Bridges are numbered along the chain shown (N, C = ends). [ ]: non-standard residue; d: D form. NHCH2CMe2S = CC(C)(CN[*:1])S[*:2] Bounds are passed on as bounds.

Test [1] addresses T1, KOP (Homo sapiens, UniProt P41145). The test is described as follows: Inhibition of Forskolin-induced cAMP production in HEK-KOP cells (AlphaScreen, DP series). The test is classed as cell-based. The settings on record: for IC80: approximate IC80, 'EC anything' protocol; for cAMP response, HEK-KOP: concentration-response curve, % cAMP. As for the experimental part:
DP-7-11 and DP-7-12 were assessed for the ability to inhibit cAMP production in HEK-DOP and HEK KOP cells.
The HEK-293 DOP (HEK-DOP) and HEK-293 KOP (HEK-KOP) cell lines were cultured in a T75 flask, in Dulbeco's Modified Eagle's Medium (DMEM) complete with 10% (v/v) fetal bovine serum (FBS) and 1% (v/v) Geneticin. Cells were incubated in a humidified atmosphere of 37° C. (95% air and 5% CO2). Cells were passaged at 80-90% confluence and media was changed every two days.
Stimulation buffer and Lysis buffer were prepared fresh on the day of each assay. Stimulation buffer contained 19.5 mL Hanks buffered saline solution, Bovine serum albumin (BSA) 0.1% (w/v), 0.5 mM 3-Isobutyl-1-methylxanthine (IBMX) and 5 mM HEPES (4-(2-hydroxyethyl)-1-piperazineethanesulfonic acid). Lysis buffer contained 19 mL Mili-Q H2O, BSA 0.1% (w/v), 0.3% (v/v) 10% Tween-20, and 5 mM HEPES. Both buffers were adjusted to pH 7.4 with NaOH.
The cAMP standard dilution series was prepared from the 50 μM cAMP standard solution provided by the cAMP assay kit. The standard solution was vortexed before being serially diluted to provide a concentration range of 5×10^−6 M to 5×10^−11 M in ½ Log intervals.
For this assay, Forskolin was optimised at 50 μM/well. 25 mM stocks were used to prepare 0.2 mM Forskolin. The concentration of Forskolin prepared was 4 times the required concentration in the well to account for further dilution in the well. 0.1 mM Forskolin solution was then made from this and used to dilute the peptide solutions.
DP-7-11 and DP-7-12 provided in powder form and reconstituted to 10 mM stock solutions and diluted to 1 mM working stocks using Mili-Q H2O. Each peptide solution was serially diluted to give concentrations of 1×10^−6 to 3×10^−7 M with stimulation buffer.
Stimulation buffer was added to the 0.2 mM Forskolin solution in a 1:1 ratio to prepare the Forskolin only treatment solution. This was the positive control. Stimulation buffer was used as the negative control.
Cells were harvested from two T75 flasks on the day of experimentation. Identical protocol was used for both DOP and KOP cells. The cells were first removed from the incubator and washed with Versene®. The cells were then incubated in 2 mL of Versene® at 37° C. for 5 minutes. Following this, the mixture was made up to 5 mL with Versene® in a centrifuge tube. This was centrifuged at 1300 rpm for 2 minutes at 23° C. The supernatant was then decanted and the cells resuspended in 100 μL stimulation buffer for counting. A hemocytometer was used to count the cells. This assay required the concentration of cells to be 13300 cells/μL
This method was used to conduct all cAMP Alphascreen assays. The acceptor bead mixture consisted of acceptor beads and stimulation buffer mixed according to the ratio 1:35 given in the kit. From this, the acceptor beads mixture was used to prepare separate mixtures for the cAMP standard curve and for the treatment wells of the assay. For the treatment wells, the beads were mixed with cells in a 1:1 ratio. For the cAMP standard curve, the beads were mixed with more stimulation buffer in a 1:1 ratio. The donor bead mixture consisted of donor beads, biotinylated cAMP and lysis buffer mixed in the ratio 1:3:300.
The DP series compounds were assayed as follows: The assay was performed using a 96 well ½ area plate. The different cAMP standard solutions (3 μL/well) were plated in duplicate. The different concentrations of drug (3 μL/well), and control solutions (3 μL/well) were plated in triplicate. […]

For test [2], the target named is T1, KOP. Nature of the test: In vitro cAMP activity at KOP (Table 10). The test is classed as cell-based. To be noted: cAMP inhibition, four-parameter regression, normalised to U50488H. Here is the method: The CP series compounds were assayed as follows: The assay was performed using a 96 well ½ area plate. The different cAMP standard solutions (3 μL/well) were plated in duplicate. The different concentrations of drug (3 μL/well), and control solutions (3 μL/well) were plated in triplicate. Following this, the acceptor bead mixture (3 μL/well) was added to the respective sets—either cAMP standard curve or the treatment. This was covered and incubated on the orbital shaker for 60 minutes at 37° C. Then, the donor bead mixture (10 μL/well) was added to each well. This was incubated at room temperature overnight on the orbital shaker.
For DP-11-06 the assay was carried out in the same way as for the CP compounds except it was incubated for 30 mins at 37° C.
For the CP series compounds and DP-11-06, the Ensight® Multimode Plate Reader was used to quantify the fluorescence units of each plate. Before reading, each plate was centrifuged at 280 g for 30 seconds. Using GraphPad Prism7® Software, cAMP concentrations were determined by fit spline/LOWESS analysis. The cAMP standard curve was used for interpolation at this point. The cAMP concentrations were then normalized to the highest cAMP concentration recorded and analyzed by one-way ANOVA for multiple comparisons. The IC50 for each compound was then calculated using GraphPad Prism7® with non-linear regression analysis using four parameter curve fitting.
The results shown in Table 10 utilized rat plasma. • Note that DP-7-11 and CP5 represent the same compound, and DP-7-12 and CP6 are the same compound. In this regard, a different regression analysis method was adopted on the above cAMP experiments. Particularly, a new non-linear regression (four-parameter) was adopted to better account for hill slope, thereby improving the regression fit.

T1 sequence (P41145 whole entry): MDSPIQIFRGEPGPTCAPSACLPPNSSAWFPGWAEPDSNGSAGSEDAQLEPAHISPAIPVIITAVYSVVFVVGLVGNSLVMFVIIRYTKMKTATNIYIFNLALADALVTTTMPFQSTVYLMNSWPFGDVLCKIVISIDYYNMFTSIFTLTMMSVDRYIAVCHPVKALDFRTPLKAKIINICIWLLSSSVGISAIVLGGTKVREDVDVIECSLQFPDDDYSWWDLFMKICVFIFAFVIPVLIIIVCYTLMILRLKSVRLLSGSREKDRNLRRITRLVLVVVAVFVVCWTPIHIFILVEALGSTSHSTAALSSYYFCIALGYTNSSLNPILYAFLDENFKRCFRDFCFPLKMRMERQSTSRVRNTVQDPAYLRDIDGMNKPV

Take `CC1(C)CNC(=O)C[C@@H](NC(=O)[C@@H](N)Cc2ccc(O)cc2)C(=O)NCC(=O)N[C@@H](Cc2ccccc2)C(=O)N[C@H](C(=O)N[C@@H](CCCNC(=N)N)C(=O)N[C@@H](CCCNC(=N)N)C(N)=O)CSS1` [DP-7-12, c(Tyr-D(Asp)-Gly-Phe-SSa-Arg-Arg)] (H-Y[dD]GFCRR-NH2; linker 2-5 via NHCH2CMe2S): at KOP [1], the IC80 is 28.8 nM and the “cAMP response, HEK-KOP” value is recorded as 25.88%. The molecule further displayed a concentration for a half-maximal effect (EC50) on KOP [2] of 160 nM.

Turning to `CC1(C)CNC(=O)C[C@H](C(=O)N[C@@H](CCCNC(=N)N)C(=O)N[C@@H](CCCNC(=N)N)C(N)=O)NC(=O)[C@H](Cc2ccccc2)NC(=O)CNC(=O)[C@@H](NC(=O)[C@@H](N)Cc2ccc(O)cc2)CSS1` [DP-7-11, c(Tyr-SSa-Gly-Phe-D(Asp)-Arg-Arg)], the IC50 on KOP [1] (Forskolin 50 μM/well, 95% CI in brackets) amounted to 5.06 nM. For the same molecule, at KOP [1], the 80% effect concentration (IC80) came to 30 nM and the “cAMP response, HEK-KOP” value came out at 13.73%. The same molecule displayed a half-maximal effective concentration (EC50) at KOP [2] greater than 10000 nM.
